Measurements from patent publication US10722512B2, “Combinations of histone deacetylase inhibitors and either HER2 inhibitors or PI3K inhibitors” (Acetylon Pharmaceuticals, Inc., priority 2013, dated 2020).

What was measured:
Type in all cases: cell-based
ZR-75-1 = test: Breast cancer cell viability, 48 hours, MTA assay; conditions: 48 hours; for IC50: Homo sapiens, ZR-75-1, single agent, read-out: IC50; for Synergy: ZR-75-1, combination with cmpd A, Chou-Talalay CI
Text: (§1) Cell viabilities were used to calculate “Fraction Affected” (Fa) and “Combination Index” (CI) values using the Chou-Talalay method. Any combination with a CI value<0.70 at a Fa value between 0.25 and 0.75 was defined as positive synergy.

Hs578T = test: Breast cancer cell viability, 48 hours, MTA assay; conditions: Hs578T, 48 hours; for IC50: Homo sapiens, Hs-578T, single agent, read-out: IC50; for Synergy: combination with cmpd A, Chou-Talalay CI
Text: as §1

MX-1 = test: Breast cancer cell viability, 48 hours, MTA assay; conditions: 48 hours; for IC50: Homo sapiens, MX1, MX-1, single agent, read-out: IC50; for Synergy: MX-1, combination with cmpd A, Chou-Talalay CI
Text: as §1

MDA-MB-436 = test: Breast cancer cell viability, 48 hours, MTA assay; conditions: 48 hours; for IC50: Homo sapiens, MDA-MB-436, single agent, read-out: IC50
Text: as §1

MDA-MB-453 = test: Breast cancer cell viability, 48 hours, MTA assay; conditions: 48 hours; for IC50: Homo sapiens, MDA-MB-453, single agent, read-out: IC50; for Synergy: MDA-MB-453, combination with cmpd A, Chou-Talalay CI
Text: as §1

T-47D* = test: Breast cancer cell viability, 48 hours, MTA assay; conditions: T-47D*, 48 hours; for IC50: Homo sapiens, T47D, single agent, read-out: IC50; for Synergy: combination with cmpd A, Chou-Talalay CI
Text: as §1

BT-549 = test: Breast cancer cell viability, 48 hours, MTA assay; conditions: 48 hours; for Synergy: BT-549, combination with cmpd A, Chou-Talalay CI; for IC50: Homo sapiens, BT-549, single agent, read-out: IC50
Text: as §1

MDA-MB-361 = test: Breast cancer cell viability, 48 hours, MTA assay; conditions: 48 hours; for IC50: Homo sapiens, MDA-MB-361, single agent, read-out: IC50
Text: as §1

BT474 = test: Breast cancer cell viability, 48 hours, MTA assay; conditions: 48 hours; for Synergy: BT474, combination with cmpd A, Chou-Talalay CI; for IC50: Homo sapiens, BT-474, BT474, single agent, read-out: IC50
Text: as §1

Bcap-37 = test: Breast cancer cell viability, 48 hours, MTA assay; conditions: 48 hours; for Synergy: Bcap-37, combination with cmpd A, Chou-Talalay CI; for IC50: Homo sapiens, Bcap37, Bcap-37, single agent, read-out: IC50
Text: as §1

MDA-MB-468 = test: Breast cancer cell viability, 48 hours, MTA assay; conditions: 48 hours; for IC50: Homo sapiens, MDA-MB-468, single agent, read-out: IC50; for Synergy: MDA-MB-468, combination with cmpd A, Chou-Talalay CI
Text: as §1

MCF-7 = test: Breast cancer cell viability, 48 hours, MTA assay; conditions: 48 hours; for IC50: Homo sapiens, MCF7, MCF-7, single agent, read-out: IC50; for Synergy: MCF-7, combination with cmpd A, Chou-Talalay CI
Text: as §1

MDA-MB-231 = test: Breast cancer cell viability, 48 hours, MTA assay; conditions: 48 hours; for IC50: Homo sapiens, MDA-MB-231, single agent, read-out: IC50; for Synergy: MDA-MB-231, combination with cmpd A, Chou-Talalay CI
Text: as §1

HCC1937 = test: Breast cancer cell viability, 48 hours, MTA assay; conditions: 48 hours; for Synergy: HCC1937, combination with cmpd A, Chou-Talalay CI; for IC50: Homo sapiens, HCC1937, single agent, read-out: IC50
Text: as §1

SK-BR-3 = test: Breast cancer cell viability, 48 hours, MTA assay; conditions: 48 hours; for IC50: Homo sapiens, SK-BR-3, single agent, read-out: IC50; for Synergy: SK-BR-3, combination with cmpd A, Chou-Talalay CI
Text: as §1

HCC38 = test: Breast cancer cell viability, 48 hours, MTA assay; conditions: 48 hours; for Synergy: HCC38, combination with cmpd A, Chou-Talalay CI; for IC50: Homo sapiens, HCC38, single agent, read-out: IC50
Text: as §1

[1] = tested on: Her2+ breast cancer cells

In the case of `CS(=O)(=O)CCNCc1ccc(-c2ccc3ncnc(Nc4ccc(OCc5cccc(F)c5)c(Cl)c4)c3c2)o1` [Lapatinib], the IC50 (ZR-75-1) is reported as 2690 nM, the Synergy (ZR-75-1) is reported as “S (Any combination with a CI value<0.70 at a Fa value between 0.25 and 0.75 was defined as positive synergy)” and the IC50 (Hs578T) is reported as 5770 nM. The Synergy (Hs578T) was “S (Any combination with a CI value<0.70 at a Fa value between 0.25 and 0.75 was defined as positive synergy)”, the IC50 (MX-1) was 1010 nM and the Synergy (MX-1) was “S (Any combination with a CI value<0.70 at a Fa value between 0.25 and 0.75 was defined as positive synergy)”. For the same compound, the IC50 (MDA-MB-436) was 9.31 µM, the IC50 (MDA-MB-453) was 130 nM and the Synergy (MDA-MB-453) was “S (Any combination with a CI value<0.70 at a Fa value between 0.25 and 0.75 was defined as positive synergy)”. For the same compound, the IC50 (T-47D*) was 23300 nM, the Synergy (T-47D*) was “S (Any combination with a CI value<0.70 at a Fa value between 0.25 and 0.75 was defined as positive synergy)” and the Synergy (BT-549) was “S (Any combination with a CI value<0.70 at a Fa value between 0.25 and 0.75 was defined as positive synergy)”. The IC50 (BT-549) was 6530 nM, the IC50 (MDA-MB-361) was 9.31 µM and the Synergy (BT474) was “S (Any combination with a CI value<0.70 at a Fa value between 0.25 and 0.75 was defined as positive synergy)”. For the same compound, the IC50 (BT474) was 40 nM, the Synergy (Bcap-37) was “S (Any combination with a CI value<0.70 at a Fa value between 0.25 and 0.75 was defined as positive synergy)” and the IC50 (Bcap-37) was 10900 nM. The IC50 (MDA-MB-468) was 5600 nM, the Synergy (MDA-MB-468) was “S (Any combination with a CI value<0.70 at a Fa value between 0.25 and 0.75 was defined as positive synergy)” and the IC50 (MCF-7) was 5780 nM. For the same compound, the Synergy (MCF-7) was “S (Any combination with a CI value<0.70 at a Fa value between 0.25 and 0.75 was defined as positive synergy)”, the IC50 (MDA-MB-231) was 7170 nM and the Synergy (HCC1937) was “S (Any combination with a CI value<0.70 at a Fa value between 0.25 and 0.75 was defined as positive synergy)”. For the same compound, the IC50 (HCC1937) was 5560 nM, the IC50 (SK-BR-3) was 60 nM and the Synergy (SK-BR-3) was “S (Any combination with a CI value<0.70 at a Fa value between 0.25 and 0.75 was defined as positive synergy)”. The Synergy (HCC38) was “S (Any combination with a CI value<0.70 at a Fa value between 0.25 and 0.75 was defined as positive synergy)”, the IC50 (HCC38) was 5.05 µM and the “cytotoxicity of the combination with Compound A” value [1] was “synergistic cytotoxicity”.
`CS(=O)(=O)N1CCN(Cc2cc3nc(-c4cccc5[nH]ncc45)nc(N4CCOCC4)c3s2)CC1` [GDC-0941] was tested, and the IC50 (ZR-75-1) was 210 nM, the Synergy (ZR-75-1) was “S (Any combination with a CI value<0.70 at a Fa value between 0.25 and 0.75 was defined as positive synergy)” and the IC50 (Hs578T) was 1110 nM. For the same compound, the Synergy (Hs578T) was “S (Any combination with a CI value<0.70 at a Fa value between 0.25 and 0.75 was defined as positive synergy)”, the IC50 (MX-1) was 560 nM and the Synergy (MX-1) was “S (Any combination with a CI value<0.70 at a Fa value between 0.25 and 0.75 was defined as positive synergy)”. The IC50 (MDA-MB-436) was 3.27 µM, the Synergy (MDA-MB-436; MDA-MB-436, combination with cmpd A, Chou-Talalay CI) was “S (Any combination with a CI value<0.70 at a Fa value between 0.25 and 0.75 was defined as positive synergy)” and the IC50 (MDA-MB-453) was 290 nM. For the same compound, the Synergy (MDA-MB-453) was “S (Any combination with a CI value<0.70 at a Fa value between 0.25 and 0.75 was defined as positive synergy)”, the IC50 (T-47D*) was 620 nM and the Synergy (T-47D*) was “S (Any combination with a CI value<0.70 at a Fa value between 0.25 and 0.75 was defined as positive synergy)”. For the same compound, the Synergy (BT-549) was “S (Any combination with a CI value<0.70 at a Fa value between 0.25 and 0.75 was defined as positive synergy)”, the IC50 (BT-549) was 1660 nM and the IC50 (MDA-MB-361) was 3.27 µM. For the same compound, the Synergy (MDA-MB-361; MDA-MB-361, combination with cmpd A, Chou-Talalay CI) was “S (Any combination with a CI value<0.70 at a Fa value between 0.25 and 0.75 was defined as positive synergy)”, the Synergy (BT474) was “S (Any combination with a CI value<0.70 at a Fa value between 0.25 and 0.75 was defined as positive synergy)” and the IC50 (BT474) was 90 nM. The Synergy (Bcap-37) was “S (Any combination with a CI value<0.70 at a Fa value between 0.25 and 0.75 was defined as positive synergy)”, the IC50 (Bcap-37) was 2480 nM and the IC50 (MDA-MB-468) was 2930 nM. The Synergy (MDA-MB-468) was “S (Any combination with a CI value<0.70 at a Fa value between 0.25 and 0.75 was defined as positive synergy)”, the IC50 (MCF-7) was 430 nM and the Synergy (MCF-7) was “S (Any combination with a CI value<0.70 at a Fa value between 0.25 and 0.75 was defined as positive synergy)”. For the same compound, the IC50 (MDA-MB-231) was 1690 nM, the Synergy (MDA-MB-231) was “S (Any combination with a CI value<0.70 at a Fa value between 0.25 and 0.75 was defined as positive synergy)” and the Synergy (HCC1937) was “S (Any combination with a CI value<0.70 at a Fa value between 0.25 and 0.75 was defined as positive synergy)”. The IC50 (HCC1937) was 2450 nM, the IC50 (SK-BR-3) was 220 nM and the Synergy (SK-BR-3) was “S (Any combination with a CI value<0.70 at a Fa value between 0.25 and 0.75 was defined as positive synergy)”. The Synergy (HCC38) was “S (Any combination with a CI value<0.70 at a Fa value between 0.25 and 0.75 was defined as positive synergy)”, the IC50 (HCC38) was 7.44 µM and the “cytotoxicity of the combination with Compound A” value [1] was “synergistic cytotoxicity”.
`COc1cccc2c1C(=O)c1c(O)c3c(c(O)c1C2=O)C[C@@](O)(C(=O)CO)C[C@@H]3O[C@H]1C[C@H](N)[C@H](O)[C@H](C)O1` [Doxorubicin] was tested, and the IC50 (ZR-75-1) was 130 nM, the Synergy (ZR-75-1) was “S (Any combination with a CI value<0.70 at a Fa value between 0.25 and 0.75 was defined as positive synergy)” and the IC50 (Hs578T) was 1560 nM. The Synergy (Hs578T) was “S (Any combination with a CI value<0.70 at a Fa value between 0.25 and 0.75 was defined as positive synergy)”, the IC50 (MX-1) was 240 nM and the Synergy (MX-1) was “S (Any combination with a CI value<0.70 at a Fa value between 0.25 and 0.75 was defined as positive synergy)”. It also gave an IC50 (MDA-MB-436) of 0.17 µM, an IC50 (MDA-MB-453) of 220 nM and an IC50 (T-47D*) of 150 nM. For the same compound, the Synergy (T-47D*) was “S (Any combination with a CI value<0.70 at a Fa value between 0.25 and 0.75 was defined as positive synergy)”, the Synergy (BT-549) was “S (Any combination with a CI value<0.70 at a Fa value between 0.25 and 0.75 was defined as positive synergy)” and the IC50 (BT-549) was 30 nM. The IC50 (MDA-MB-361) was 0.17 µM, the Synergy (BT474) was “S (Any combination with a CI value<0.70 at a Fa value between 0.25 and 0.75 was defined as positive synergy)” and the IC50 (BT474) was 190 nM. The Synergy (Bcap-37) was “S (Any combination with a CI value<0.70 at a Fa value between 0.25 and 0.75 was defined as positive synergy)”, the IC50 (Bcap-37) was 170 nM and the IC50 (MDA-MB-468) was 100 nM. The Synergy (MDA-MB-468) was “S (Any combination with a CI value<0.70 at a Fa value between 0.25 and 0.75 was defined as positive synergy)”, the IC50 (MCF-7) was 820 nM and the IC50 (MDA-MB-231) was 730 nM. For the same compound, the Synergy (MDA-MB-231) was “S (Any combination with a CI value<0.70 at a Fa value between 0.25 and 0.75 was defined as positive synergy)”, the Synergy (HCC1937) was “S (Any combination with a CI value<0.70 at a Fa value between 0.25 and 0.75 was defined as positive synergy)” and the IC50 (HCC1937) was 240 nM. For the same compound, the IC50 (SK-BR-3) was 120 nM, the Synergy (SK-BR-3) was “S (Any combination with a CI value<0.70 at a Fa value between 0.25 and 0.75 was defined as positive synergy)” and the Synergy (HCC38) was “S (Any combination with a CI value<0.70 at a Fa value between 0.25 and 0.75 was defined as positive synergy)”. For the same compound, the IC50 (HCC38) was 0.18 µM.
